In patent US9499550B2 (BRISTOL-MYERS SQUIBB COMPANY, priority 2012, dated 2016) one finds EC50 data, which are given here for 12 compounds.

Assay [1] relates to HCV genotype 1a (H77 strain) replicon in HUH-7 cells. As to the kind of experiment: HCV replicon luciferase reporter assay, genotype 1a. Particulars: Hepatitis C virus, Huh-7, 72 h, HCV genotype 1a replicon luciferase, 3 days incubation. Type of assay: cell-based. Summed up: (§1)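 Replicon inhibition for both genotypes was measured as Renilla luciferase signal (EnduRen, 7.5 μM final, 2 h) after 3-day, 37° C exposure of replicon-bearing HUH-7 cells in 4% FCS DMEM, 0.5% DMSO. The 1b construct carries S1179I; the 1a H77 construct carries P1496L and S2204I. Twenty-point, 3-fold dilutions were fitted four-parametrically for EC50, and CC50 was taken from multiplexed Cell Titer-Blue.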

For assay [2], the system named is HCV genotype 1b (Con1) replicon in HUH-7 cells. As to the kind of experiment: HCV replicon luciferase reporter assay, genotype 1b. Type of assay: cell-based. Particulars: Hepatitis C virus, Huh-7, 72 h, HCV genotype 1b replicon luciferase, 3 days incubation. Summed up:
as §1
On the technique in general: In antiviral work, replicon cells carry a viral genome segment that copies itself.

Like-named read-outs stand apart in the source and are kept apart here. Bounds are passed on as bounds.

For orientation: EC50 means the concentration that produces a half-maximal response. On to `COc1cc2cc(-c3ccc(OC(C)C)cc3)nc(O[C@@H]3C[C@H]4C(=O)N[C@]5(C(=O)NS(=O)(=O)C6CC6)C[C@H]5/C=C\CC[C@H](C)C[C@@H](C)[C@H](NC(=O)OC(C)(C)C(F)(F)F)C(=O)N4C3)c2cc1F` [Compound 3189, 1,1,1-trifluoro-2-methylpropan-2-yl((2R,6S,7R,9S,13aS,14aR,16aS,Z)-14a-((cyclopropylsulfonyl)carbamoyl)-2-((7-fluoro-3-(4-isopropoxyphenyl)-6-methoxyisoquinolin-1-yl)oxy)-7,9-dimethyl-5,16-dioxo-1,2,3,5,6,7,8,9,10,11,13a,14,14a,15,16,16a-hexadecahydrocyclopropa[e]pyrrolo[1,2-a][1,4]diazacyclopentadecin-6-yl)carbamate], for which the EC50 in assay [1] (read-out: LE_1a (EC50, range)) is 4.82 to 103 nM; in assay [2] (read-out: LE_1b (EC50, range)) it was below 5.46 nM.
`COc1cc2cc(-c3ccc(OC(C)C)cc3)nc(O[C@@H]3C[C@H]4C(=O)N[C@]5(C(=O)NS(=O)(=O)C6CC6)C[C@H]5/C=C\CC[C@@H](C)C[C@@H](C)[C@H](NC(=O)OC(C)(C)C(F)(F)F)C(=O)N4C3)c2cc1F` [Compound 3190, 1,1,1-trifluoro-2-methylpropan-2-yl((2R,6S,7R,9R,13aS,14aR,16aS,Z)-14a-((cyclopropylsulfonyl)carbamoyl)-2-((7-fluoro-3-(4-isopropoxyphenyl)-6-methoxyisoquinolin-1-yl)oxy)-7,9-dimethyl-5,16-dioxo-1,2,3,5,6,7,8,9,10,11,13a,14,14a,15,16,16a-hexadecahydrocyclopropa[e]pyrrolo[1,2-a][1,4]diazacyclopentadecin-6-yl)carbamate]: the EC50 in assay [1] (read-out: LE_1a (EC50, range)) is below 5.46 nM; in assay [2] (read-out: LE_1b (EC50, range)) it was below 5.46 nM.
As to `COc1cc2cc(-c3ccc(OC(C)C)cc3)nc(O[C@@H]3C[C@H]4C(=O)N[C@]5(C(=O)NS(=O)(=O)C6(C)CC6)C[C@H]5/C=C\CC[C@H](C)C[C@@H](C)[C@H](NC(=O)O[C@@H]5C[C@@H]6C[C@@H]6C5)C(=O)N4C3)c2cc1F` [Compound 3191, (1R,3r,5S)-bicyclo[3.1.0]hexan-3-yl((2R,6S,7R,9S,13aS,14aR,16aS,Z)-2-((7-fluoro-3-(4-isopropoxyphenyl)-6-methoxyisoquinolin-1-yl)oxy)-7,9-dimethyl-14a-(((1-methylcyclopropyl)sulfonyl)carbamoyl)-5,16-dioxo-1,2,3,5,6,7,8,9,10,11,13a,14,14a,15,16,16a-hexadecahydrocyclopropa[e]pyrrolo[1,2-a][1,4]diazacyclopentadecin-6-yl)carbamate], the half-maximal effective concentration (EC50) in assay [1] (read-out: LE_1a (EC50, range)) is 4.82 to 103 nM; in assay [2] (read-out: LE_1b (EC50, range)), below 5.46 nM.
With `COc1cc2cc(-c3ccc(OC(C)C)cc3)nc(O[C@@H]3C[C@H]4C(=O)N[C@]5(C(=O)NS(=O)(=O)C6(C)CC6)C[C@H]5/C=C\CC[C@@H](C)C[C@@H](C)[C@H](NC(=O)O[C@@H]5C[C@@H]6C[C@@H]6C5)C(=O)N4C3)c2cc1F` [Compound 3192, (1R,3r,5S)-bicyclo[3.1.0]hexan-3-yl((2R,6S,7R,9R,13aS,14aR,16aS,Z)-2-((7-fluoro-3-(4-isopropoxyphenyl)-6-methoxyisoquinolin-1-yl)oxy)-7,9-dimethyl-14a-(((1-methylcyclopropyl)sulfonyl)carbamoyl)-5,16-dioxo-1,2,3,5,6,7,8,9,10,11,13a,14,14a,15,16,16a-hexadecahydrocyclopropa[e]pyrrolo[1,2-a][1,4]diazacyclopentadecin-6-yl)carbamate], the EC50 is below 5.46 nM in assay [1] (read-out: LE_1a (EC50, range)) and below 5.46 nM in assay [2] (read-out: LE_1b (EC50, range)).
As to `CCOc1cc2cc(OC)ccc2c(O[C@@H]2C[C@H]3C(=O)N[C@]4(C(=O)NS(=O)(=O)C5(C)CC5)C[C@H]4/C=C\CC[C@H](C)C[C@@H](C)[C@H](NC(=O)OC(C)(C)C)C(=O)N3C2)n1` [Compound 3193, tert-butyl ((2R,6S,7R,9S,13aS,14aR,16aS,Z)-2-((3-ethoxy-6-methoxyisoquinolin-1-yl)oxy)-7,9-dimethyl-14a-(((1-methylcyclopropyl)sulfonyl)carbamoyl)-5,16-dioxo-1,2,3,5,6,7,8,9,10,11,13a,14,14a,15,16,16a-hexadecahydrocyclopropa[e]pyrrolo[1,2-a][1,4]diazacyclopentadecin-6-yl)carbamate], the concentration giving a half-maximal response (EC50) was 1.01 to 5 nM in assay [1] (read-out: LE_1a (EC50, range)) and 0.51 to 1 nM in assay [2] (read-out: LE_1b (EC50, range)).
Regarding `CCOc1cc2cc(OC)ccc2c(O[C@@H]2C[C@H]3C(=O)N[C@]4(C(=O)NS(=O)(=O)C5(C)CC5)C[C@H]4/C=C\CC[C@@H](C)C[C@@H](C)[C@H](NC(=O)OC(C)(C)C)C(=O)N3C2)n1` [Compound 3194, tert-butyl ((2R,6S,7R,9R,13aS,14aR,16aS,Z)-2-((3-ethoxy-6-methoxyisoquinolin-1-yl)oxy)-7,9-dimethyl-14a-(((1-methylcyclopropyl)sulfonyl)carbamoyl)-5,16-dioxo-1,2,3,5,6,7,8,9,10,11,13a,14,14a,15,16,16a-hexadecahydrocyclopropa[e]pyrrolo[1,2-a][1,4]diazacyclopentadecin-6-yl)carbamate], the concentration giving a half-maximal response (EC50) is 0.62 nM in assay [1] (read-out: LE_1a (EC50)); 0.51 to 1 nM in assay [1] (read-out: LE_1a (EC50, range)); 0.44 nM in assay [2] (read-out: LE_1b (EC50)); 0.1 to 0.5 nM in assay [2] (read-out: LE_1b (EC50, range)).
For the compound `COc1ccc2c(O[C@@H]3C[C@H]4C(=O)N[C@]5(C(=O)NS(=O)(=O)C6(C)CC6)C[C@H]5/C=C\CC[C@H](C)C[C@@H](C)[C@H](NC(=O)OC(C)(C)C)C(=O)N4C3)nc(OC(C)C)cc2c1` [Compound 3195, tert-butyl ((2R,6S,7R,9S,13aS,14aR,16aS,Z)-2-((3-isopropoxy-6-methoxyisoquinolin-1-yl)oxy)-7,9-dimethyl-14a-(((1-methylcyclopropyl)sulfonyl)carbamoyl)-5,16-dioxo-1,2,3,5,6,7,8,9,10,11,13a,14,14a,15,16,16a-hexadecahydrocyclopropa[e]pyrrolo[1,2-a][1,4]diazacyclopentadecin-6-yl)carbamate], the EC50 is 1.01 to 5 nM in assay [1] (read-out: LE_1a (EC50, range)) and 0.51 to 1 nM in assay [2] (read-out: LE_1b (EC50, range)).
Turning to `COc1ccc2c(O[C@@H]3C[C@H]4C(=O)N[C@]5(C(=O)NS(=O)(=O)C6(C)CC6)C[C@H]5/C=C\CC[C@@H](C)C[C@@H](C)[C@H](NC(=O)OC(C)(C)C)C(=O)N4C3)nc(OC(C)C)cc2c1` [Compound 3196, tert-butyl ((2R,6S,7R,9R,13aS,14aR,16aS,Z)-2-((3-isopropoxy-6-methoxyisoquinolin-1-yl)oxy)-7,9-dimethyl-14a-(((1-methylcyclopropyl)sulfonyl)carbamoyl)-5,16-dioxo-1,2,3,5,6,7,8,9,10,11,13a,14,14a,15,16,16a-hexadecahydrocyclopropa[e]pyrrolo[1,2-a][1,4]diazacyclopentadecin-6-yl)carbamate], the concentration for a half-maximal effect (EC50) in assay [1] (read-out: LE_1a (EC50, range)) was 0.51 to 1 nM; in assay [2] (read-out: LE_1b (EC50, range)), 0.1 to 0.5 nM.
Taken in the same sequence, the figures for `CCOc1cc2cc(OC)ccc2c(O[C@@H]2C[C@H]3C(=O)N[C@]4(C(=O)NS(=O)(=O)C5(C)CC5)C[C@H]4/C=C\CC[C@@H](C)C[C@@H](C)[C@H](NC(=O)OC(C)(C)C(F)(F)F)C(=O)N3C2)n1` [Compound 3198, 1,1,1-trifluoro-2-methylpropan-2-yl((2R,6S,7R,9R,13aS,14aR,16aS,Z)-2-((3-ethoxy-6-methoxyisoquinolin-1-yl)oxy)-7,9-dimethyl-14a-(((1-methylcyclopropyl)sulfonyl)carbamoyl)-5,16-dioxo-1,2,3,5,6,7,8,9,10,11,13a,14,14a,15,16,16a-hexadecahydrocyclopropa[e]pyrrolo[1,2-a][1,4]diazacyclopentadecin-6-yl)carbamate] were 0.51 to 1 nM and 1.01 to 5 nM.
Regarding `CCOc1cc2cc(OC)ccc2c(O[C@@H]2C[C@H]3C(=O)N[C@]4(C(=O)NS(=O)(=O)C5(C)CC5)C[C@H]4/C=C\CC[C@@H](C)C[C@@H](C)[C@H](NC(=O)OC(C)(C)C(C)(F)F)C(=O)N3C2)n1` [Compound 3200, 3,3-difluoro-2-methylbutan-2-yl((2R,6S,7R,9R,13aS,14aR,16aS,Z)-2-((3-ethoxy-6-methoxyisoquinolin-1-yl)oxy)-7,9-dimethyl-14a-(((1-methylcyclopropyl)sulfonyl)carbamoyl)-5,16-dioxo-1,2,3,5,6,7,8,9,10,11,13a,14,14a,15,16,16a-hexadecahydrocyclopropa[e]pyrrolo[1,2-a][1,4]diazacyclopentadecin-6-yl)carbamate], the EC50 fell in the range of 0.51 to 1 nM in assay [1] (read-out: LE_1a (EC50, range)) and 0.51 to 1 nM in assay [2] (read-out: LE_1b (EC50, range)).
As for `COc1ccc2c(O[C@@H]3C[C@H]4C(=O)N[C@]5(C(=O)NS(=O)(=O)C6(C)CC6)C[C@H]5/C=C\CC[C@@H](C)C[C@@H](C)[C@H](NC(=O)OC(C)(C)C(F)(F)F)C(=O)N4C3)nc(OC(C)C)cc2c1` [Compound 3202, 1,1,1-trifluoro-2-methylpropan-2-yl((2R,6S,7R,9R,13aS,14aR,16aS,Z)-2-((3-isopropoxy-6-methoxyisoquinolin-1-yl)oxy)-7,9-dimethyl-14a-(((1-methylcyclopropyl)sulfonyl)carbamoyl)-5,16-dioxo-1,2,3,5,6,7,8,9,10,11,13a,14,14a,15,16,16a-hexadecahydrocyclopropa[e]pyrrolo[1,2-a][1,4]diazacyclopentadecin-6-yl)carbamate], the EC50 in assay [1] (read-out: LE_1a (EC50, range)) lay within 1.01 to 5 nM; in assay [2] (read-out: LE_1b (EC50, range)), 1.01 to 5 nM.
`COc1ccc2c(O[C@@H]3C[C@H]4C(=O)N[C@]5(C(=O)NS(=O)(=O)C6(C)CC6)C[C@H]5/C=C\CC[C@@H](C)C[C@@H](C)[C@H](NC(=O)OC(C)(C)C(C)(F)F)C(=O)N4C3)nc(OC(C)C)cc2c1` [Compound 3204, 3,3-difluoro-2-methylbutan-2-yl((2R,6S,7R,9R,13aS,14aR,16aS,Z)-2-((3-isopropoxy-6-methoxyisoquinolin-1-yl)oxy)-7,9-dimethyl-14a-(((1-methylcyclopropyl)sulfonyl)carbamoyl)-5,16-dioxo-1,2,3,5,6,7,8,9,10,11,13a,14,14a,15,16,16a-hexadecahydrocyclopropa[e]pyrrolo[1,2-a][1,4]diazacyclopentadecin-6-yl)carbamate]: the EC50 in assay [1] (read-out: LE_1a (EC50, range)) lay within 0.51 to 1 nM; in assay [2] (read-out: LE_1b (EC50, range)), 1.01 to 5 nM.
